Laboratory results reported in patent publication US6610683B2, “Treatment of infectious disease using interleukin-1β-converting enzyme (ICE)/CED-3 family inhibitors” (IDUN Pharmaceuticals, Inc., priority 1996, dated 2003).
Residues, ends and D or L forms follow the SMILES beside them. *: point of attachment. Cbz = O=C(OCc1ccccc1)*; CH2F = FC*

Experiments:
[1] = test system: granulocytes; experiment: Respiratory burst in isolated neutrophils measured by chemiluminescence (opsonized zymosan); type: cell-based; details: FIG. 7
Protocol: Respiratory burst in isolated neutrophils measured by Chemiluminescence
Whole blood anticoagulated with Acid Citrate Dextrose (ACD) with a ratio of 1:5 ACD to blood was collected (150 ml).
Neutrophils were isolated as described above.
Opsonized zymosan was prepared by suspending 125 mg zymosan particles in 25 ml pooled human serum (5 mg/ml) and incubating them for 20 minutes at 37° C. Centrifuge the suspension and resuspend the particles in 7 ml of PBS (18 mg/ml) and stored on ice until use (vortex prior to pipetting).
50 ml of a 250 μM solution of Lucigenin (MW 510.5) was prepared by dissolving 6.4 mg of the solid in 50 ml of PBS-G (+Ca, Mg). 10 μl of PBS-G (+Ca, Mg) to the wells in a white 96 well plate.
50 μl of the 250 μM Lucigenin solution was added to the wells in a white 96 well plate.
Cell preparations were obatined from cell culture (concentration at time zero=5.0×10^6 cells/ml) with PBS-G (+Ca, Mg). 20 μl of the neutrophil suspension was suspended to the appropriate wells and the plate was incubated the plate at 37° C. for three minutes. 10 μl of the opsonized zymosan was added to the wells.
The plate was read on the luminometer (Labsystems Luminoskan, Needham Heights, Mass.) for 14 min. at 37° C. in the kinetic mode and record results using the software DeltaSoft.
The ability to undergo the respiratory burst is another measure of granulocyte viability. The respiratory burst is a physiological response of granulocytes to foreign stimuli such as bacteria. In this example, the method for inducing the respiratory burst utilized opsonized bacterial zymosan. The respiratory burst was measured via chemiluminescence.

[2] = test system: granulocytes in whole blood; experiment: Whole blood assay: survival of granulocytes by hypodiploid analysis via flow cytometry; type: cell-based; details: time zero
Protocol: The following reagents were used:
anti-CD32-FITC monoclonal antibody obtained from Pharmingen.
25 Lysing Solution (10×Stock: 89.9 g NH4Cl;
(DPBS without calcium or magnesium obtained from Irivine Scientific. 2% fetal bovine serum in DPBS stored at 4° C. 50 μg/ml propidium iodide in DPBS sterile filtered and stored at 4° C.)
200 μl blood sample/2.8 ml 1×lysis solution in a 15 ml polypropylene conical tube.
Cap and invert to mix. Leave at room temperature for 3-5 minutes.
Centrifuge in a table-top Sorvall at 1200 rpm for 5 minutes at 4° C.
Aspirate supernate. Resuspend pellet in 200 μl/sample 2% FBS/DPBS. Add 20 μl/sample anti-CD32-FITC. Incubate 30 minutes on ice in the dark.
Add 5 ml/sample DPBS. Centrifuge at 1000 rpm for 5 minutes at 4° C.
Aspirate supernate. Resuspend pellet in1 ml/sample 2% FBS/DPBS.
Add 3 ml/sample ice-cold 95% EtOH dropwise while vortexing gently.
Incubate samples on ice in the dark for 30 minutes.
Centrifuge at 1000 rpm for 5 minutes at 4° C.
Resuspend each sample in 50 μl 5 mg/ml RN'ase. Transfer sample to 900 μl/sample […] Propidium Iodide in 12×75 mm Falcon polystyrene tubes.
Incubate on ice for 30 minutes.
Analyze samples by flow cytometry (argon laser) for forward and side scatter and fluorescence.
Survival of granulocytes in whole blood was measured by hypodiploid analysis in a similar fashion to isolated granulocytes via flow cytometry. […]

[3] = test system: granulocytes; experiment: Granulocyte survival in culture, hypodiploid nuclei by propidium iodide flow cytometry; type: cell-based; details: at 48 hours; FIG. 6
Protocol: Whole blood anticoagulated with Acid Citrate Dextrose (ACD) with a ratio of 1:5 ACD to blood was collected (˜100 ml).
Using polypropylene plastic ware, neutrophils are isolated as follows:
30 ml of the whole blood is added to 50 ml polypropylene centrifuge tubes containing 15 ml of 6% Dextran (in Saline). The blood is allowed to sediment for approximately 1 hour at room temperature.
The turbid straw colored layer harvested from the top of the cylinders into 50 ml conical polypropylene tubes. The blood cells were pelleted by centrifugation at 240×g (Sorvall centrifuge at 1200 rpm) for 12 min. at 4° C. with the brake on low. […]
The supernatant was aspirated and the neutrophil pellet resuspended in 4.0 ml cold PBS (w/o Ca, Mg) on ice. 10 μl of the neutrophil cell suspension was diluted with 990 μl of Trypan blue (1:100) and cells counted using a hemacytometer. The cell number and viability were determined. […]
Neutrophils were resuspended in hypotonic fluorochrome solution at a density of 5×10^6 cells/ml. Propidium iodide fluorescence of individual nuclei was evaluated in FL2 and measured on a logarithmic scale while gating on physical parameters in forward and side scatter to exlude cell debris.
At least 10,000 events per sample were collected and the results were evaluated relative to a non-apoptotic neutrophil population. […]

[4] = test system: mammary epithelial cells; details: absence of extracellular matrix; cited from earlier work
[5] = test system: motoneurons; details: in vitro and in vivo; cited from earlier work
[6] = biological target: T1, ICE (Homo sapiens, UniProt P29466); details: cited from earlier work
T1 sequence (P29466 120-297 limits assumed): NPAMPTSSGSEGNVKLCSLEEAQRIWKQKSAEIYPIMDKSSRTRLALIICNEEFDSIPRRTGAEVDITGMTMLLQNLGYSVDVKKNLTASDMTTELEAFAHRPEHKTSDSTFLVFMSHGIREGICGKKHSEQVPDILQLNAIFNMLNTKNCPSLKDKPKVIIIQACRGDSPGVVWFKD
T1 sequence (P29466 317-404 limits assumed): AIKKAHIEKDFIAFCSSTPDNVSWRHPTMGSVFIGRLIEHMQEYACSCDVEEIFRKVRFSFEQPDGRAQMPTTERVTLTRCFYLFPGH

[7] = test system: T-lymphocyte cell line; details: cited from earlier work
[8] = after granulocyte culture for 72 hours

Cc1c(C(=O)N[C@H](C(=O)NC(CC(=O)O)C(=O)CF)C(C)C)n(C)c2ccccc12 (stereo partly drawn) [Example 43, N-[(1,3-dimethylindole-2-carbonyl)Valinyl]-3-amino-4-Oxo-5-fluoropentanoic Acid]
maintenance of the respiratory burst [1, 8]: partially maintained | maintenance of the respiratory burst ([1]; for 48 hours): substantially maintained

Cc1c(C(=O)N[C@H](C(=O)NC(CC(=O)O)C(=O)COC(=O)c2c(Cl)cccc2Cl)C(C)C)n(C)c2ccccc12 (stereo partly drawn) [Example 70, N-[N-(1,3-dimethyl-indole-2-carbonyl)-valinyl]-3-amino-5-(2,6-dichlorobenzoyl)oxy-4-oxo-pentanoic Acid]
maintenance of the respiratory burst [1, 8]: partially maintained | maintenance of the respiratory burst ([1]; for 48 hours): substantially maintained | Percentage of diploid granulocytes in whole blood [2]: 96%

COC(=O)C[C@H](NC(=O)[C@H](C)NC(=O)[C@@H](NC(=O)OCc1ccccc1)C(C)C)C(=O)CF [zVADfmk] (Cbz-Val-Ala-Asp(OMe)-CH2F)
effect on improving granulocyte survival [3]: weak effect | maintenance of the respiratory burst ([1]; opsonized zymosan, chemiluminescence): did not maintain the respiratory burst

CC(C)(C)OC(=O)N[C@@H](CC(=O)OCc1ccccc1)C(=O)CCl [Boc-D-(benzyl) chloromethylketone]
prevention of cell death of mammary epithelial cells [4]: prevented

CC(=O)N[C@@H](Cc1ccc(O)cc1)C(=O)N[C@H](C(=O)N[C@@H](C)C(=O)N[C@H](C=O)CC(=O)O)C(C)C [acetyl-YVAD-aldehyde]
block of the death of motoneurons [5]: blocked

CC(=O)NC(Cc1ccc(O)cc1)C(=O)NC(C(=O)NC(C)C(=O)NC(CC(=O)O)C(=O)C=[N+]=[N-])C(C)C (stereo not drawn) [AC-Tyr-Val-Ala-Asp-COCHN2]
inhibition of the enzyme (ICE) [6]: potent, competitive, irreversible inhibitor

CC(=O)N[C@@H](Cc1ccc(O)cc1)C(=O)N[C@H](C(=O)N[C@@H](C)C(=O)N[C@@H](CC(=O)O)C(=O)CCl)C(C)C [acetyl-YVAD-chloromethylketone]
block of the death of motoneurons [5]: blocked

CC(=O)N[C@@H](CC(=O)O)C(=O)N[C@@H](CCC(=O)O)C(=O)N[C@H](C(=O)N[C@H](C=O)CC(=O)O)C(C)C [acetyl-DEVD-aldehyde]
inhibition of anti-Fas induced apoptosis [7]: inhibited
